Measured values taken from patent US10597388B2, “Pyridazinone herbicides” (FMC CORPORATION, priority 2014, dated 2020).

Columns and labels:
Assay in all cases: Test D controlled growth environment herbicide test, pre- and postemergence
Assay type in all cases: in vivo
[1] = tested on: bromegrass, downy (downy bromegrass, Bromus tectorum)
In short: (§1)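 Species sown in silt loam and sprayed preemergence, or grown in peat-based medium to 2–18 cm (1- to 4-leaf stage) and sprayed postemergence, with compounds in non-phytotoxic solvent plus surfactant. Visual injury scored versus controls after 14–21 d in a controlled environment, 0 (no effect) to 100 (complete control).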

[2] = tested on: deadnettle (henbit deadnettle, Lamium amplexicaule)
In short: as §1

[3] = tested on: barley, spring (spring barley, Hordeum vulgare)
In short: as §1

[4] = tested on: chickweed (common chickweed, Stellaria media)
In short: as §1

[5] = tested on: chamomile (scentless chamomile, Matricaria inodora)
In short: as §1

[6] = tested on: galium (catchweed bedstraw, Galium aparine)
In short: as §1

[7] = tested on: wheat, spring (spring wheat, Triticum aestivum)
In short: as §1

[8] = tested on: lambsquarters (Chenopodium album)
In short: as §1

[9] = tested on: canarygrass (Phalaris minor)
In short: as §1

[10] = tested on: blackgrass (Alopecurus myosuroides)
In short: as §1

[11] = tested on: field poppy (Papaver rhoeas)
In short: as §1

kochia (Kochia scoparia) = tested on: kochia (Kochia scoparia)
In short: as §1

[12] = tested on: foxtail, green (green foxtail, Setaria viridis)
In short: as §1

[13] = tested on: oilseed rape (Brassica napus)
In short: as §1

[14] = Postemergence, 31 g ai/ha, scale 0 to 100 (0 no effect, 100 complete control)
[15] = Postemergence, 125 g ai/ha, visual rating on scale 0 (no effect) to 100 (complete control), 14 to 21 d
[16] = Postemergence, 250 g ai/ha, scale 0 to 100 (0 no effect, 100 complete control)
[17] = Preemergence, 62 g ai/ha, scale 0 to 100 (0 no effect, 100 complete control)
[18] = Preemergence, 125 g ai/ha, scale 0 to 100 (0 no effect, 100 complete control)
[19] = Preemergence, 250 g ai/ha, scale 0 to 100, 0 no effect, 100 complete control
[20] = postemergence, 62 g ai/ha, scale 0 to 100, 0 no effect, 100 complete control

Cc1nn(C)c(=O)c(-c2cccc3ccccc23)c1O [Compound 11, 5-hydroxy-2,6-dimethyl-4-(1-naphthalenyl)-3(2H)-pyridazinone]
Bromegrass, Downy plant response rating [1, 14]: 15 | Plant response rating, Bromegrass, Downy [1, 15]: 25 | Plant response rating, Bromegrass, Downy [1, 16]: 50 | Plant response rating (scale of 0 to 100), Bromegrass, Downy ([1]; Preemergence, 31 g ai/ha): 5 | Plant response rating, Bromegrass, Downy [1, 17]: 5 | Plant response rating, Bromegrass, Downy [1, 18]: 20 | Plant response rating, Bromegrass, Downy [1, 19]: 55 | Plant response rating, Bromegrass, Downy [1, 20]: 15 | Deadnettle plant response rating [2, 14]: 75 | Plant response rating, Deadnettle [2, 15]: 100 | Plant response rating, Deadnettle [2, 16]: 100 | Plant response rating (scale of 0 to 100), Deadnettle ([2]; Preemergence, 31 g ai/ha): 10 | Plant response rating, Deadnettle [2, 17]: 15 | Plant response rating, Deadnettle [2, 18]: 50 | Plant response rating, Deadnettle [2, 19]: 100 | Plant response rating, Deadnettle [2, 20]: 100 | Plant response rating, Barley, Spring [3, 14]: 0 | Plant response rating, Barley, Spring [3, 15]: 10 | Plant response rating, Barley, Spring [3, 16]: 10 | Plant response rating (scale of 0 to 100), Barley, Spring ([3]; Preemergence, 31 g ai/ha): 5 | Plant response rating, Barley, Spring [3, 17]: 5 | Plant response rating, Barley, Spring [3, 18]: 10 | Barley, Spring plant response rating [3, 19]: 15 | Plant response rating, Barley, Spring [3, 20]: 0 | Chickweed plant response rating [4, 14]: 45 | Plant response rating, Chickweed [4, 15]: 80 | Plant response rating, Chickweed [4, 16]: 100 | Plant response rating (scale of 0 to 100), Chickweed ([4]; Preemergence, 31 g ai/ha): 20 | Plant response rating, Chickweed [4, 17]: 100 | Plant response rating, Chickweed [4, 18]: 100 | Plant response rating, Chickweed [4, 19]: 100 | Plant response rating, Chickweed [4, 20]: 90 | Chamomile plant response rating [5, 14]: 40 | Plant response rating, Chamomile [5, 15]: 75 | Plant response rating, Chamomile [5, 16]: 90 | Plant response rating, Chamomile [5, 20]: 65 | Galium plant response rating [6, 14]: 85 | Plant response rating, Galium [6, 15]: 90 | Plant response rating, Galium [6, 16]: 90 | Plant response rating (scale of 0 to 100), Galium ([6]; Preemergence, 31 g ai/ha): 70 | Plant response rating, Galium [6, 17]: 80 | Plant response rating, Galium [6, 18]: 100 | Plant response rating, Galium [6, 19]: 100 | Plant response rating, Galium [6, 20]: 85 | Wheat, Spring plant response rating [7, 14]: 15 | Plant response rating, Wheat, Spring [7, 15]: 25 | Plant response rating, Wheat, Spring [7, 16]: 25 | Plant response rating (scale of 0 to 100), Wheat, Spring ([7]; Preemergence, 31 g ai/ha): 5 | Plant response rating, Wheat, Spring [7, 17]: 15 | Plant response rating, Wheat, Spring [7, 18]: 25 | Plant response rating, Wheat, Spring [7, 19]: 35 | Plant response rating, Wheat, Spring [7, 20]: 15 | Lambsquarters plant response rating [8, 14]: 60 | Plant response rating, Lambsquarters [8, 15]: 80 | Plant response rating, Lambsquarters [8, 16]: 85 | Plant response rating (scale of 0 to 100), Lambsquarters ([8]; Preemergence, 31 g ai/ha): 25 | Plant response rating, Lambsquarters [8, 17]: 35 | Plant response rating, Lambsquarters [8, 18]: 100 | Plant response rating, Lambsquarters [8, 19]: 100 | Plant response rating, Lambsquarters [8, 20]: 80 | Canarygrass plant response rating [9, 14]: 10 | Plant response rating, Canarygrass [9, 15]: 30 | Plant response rating, Canarygrass [9, 16]: 55 | Plant response rating (scale of 0 to 100), Canarygrass ([9]; Preemergence, 31 g ai/ha): 45 | Plant response rating, Canarygrass [9, 17]: 55 | Plant response rating, Canarygrass [9, 18]: 90 | Plant response rating, Canarygrass [9, 19]: 90 | Plant response rating, Canarygrass [9, 20]: 20 | Blackgrass plant response rating [10, 14]: 25 | Plant response rating, Blackgrass [10, 15]: 70 | Plant response rating, Blackgrass [10, 16]: 70 | Plant response rating (scale of 0 to 100), Blackgrass ([10]; Preemergence, 31 g ai/ha): 5 | Plant response rating, Blackgrass [10, 17]: 30 | Plant response rating, Blackgrass [10, 18]: 55 | Blackgrass plant response rating [10, 19]: 75 | Plant response rating, Blackgrass [10, 20]: 40 | Field Poppy plant response rating [11, 14]: 35 | Plant response rating, Field Poppy [11, 15]: 80 | Plant response rating, Field Poppy [11, 16]: 100 | Plant response rating (scale of 0 to 100), Field Poppy ([11]; Preemergence, 31 g ai/ha): 75 | Plant response rating, Field Poppy [11, 17]: 75 | Plant response rating, Field Poppy [11, 18]: 100 | Plant response rating, Field Poppy [11, 19]: 100 | Plant response rating, Field Poppy [11, 20]: 85 | Kochia plant response rating (kochia (Kochia scoparia); [14]): 60 | Plant response rating, Kochia (kochia (Kochia scoparia); [15]): 85 | Plant response rating, Kochia (kochia (Kochia scoparia); [16]): 100 | Plant response rating (scale of 0 to 100), Kochia (kochia (Kochia scoparia); Preemergence, 31 g ai/ha): 10 | Plant response rating, Kochia (kochia (Kochia scoparia); [17]): 40 | Plant response rating, Kochia (kochia (Kochia scoparia); [18]): 75 | Plant response rating, Kochia (kochia (Kochia scoparia); [19]): 95 | Plant response rating, Kochia (kochia (Kochia scoparia); [20]): 75 | Foxtail, Green plant response rating [12, 14]: 5 | Plant response rating, Foxtail, Green [12, 15]: 65 | Plant response rating, Foxtail, Green [12, 16]: 70 | Plant response rating (scale of 0 to 100), Foxtail, Green ([12]; Preemergence, 31 g ai/ha): 10 | Plant response rating, Foxtail, Green [12, 17]: 10 | Plant response rating, Foxtail, Green [12, 18]: 15 | Plant response rating, Foxtail, Green [12, 19]: 65 | Plant response rating, Foxtail, Green [12, 20]: 25 | Oilseed Rape plant response rating [13, 14]: 0 | Plant response rating, Oilseed Rape [13, 15]: 20 | Plant response rating, Oilseed Rape [13, 16]: 55 | Plant response rating (scale of 0 to 100), Oilseed Rape ([13]; Preemergence, 31 g ai/ha): 5 | Plant response rating, Oilseed Rape [13, 17]: 0 | Plant response rating, Oilseed Rape [13, 18]: 5 | Plant response rating, Oilseed Rape [13, 19]: 5 | Plant response rating, Oilseed Rape [13, 20]: 15
